Reference: US20250090437A1, “COSMETIC COMPOUNDING AGENT, COSMETIC AND PRODUCTION METHOD THEREOF” (MIYOSHI OIL & FAT CO., LTD., priority 2019, published 2025)

Assays:
[1] = Water retention property test 1; format: physicochemical; conditions: 80 wt % aqueous solution
Procedure: A moisture rate after 24 hours was again measured (post-test moisture rate: B), followed by using the formula below to calculate a rate of reduction in moisture so as to evaluate the water retention property. • Pre-test moisture rate: A (%) • Post-test moisture rate: B (%)

[2] = Water confinement property test (barrier property); format: physicochemical; conditions: 80 wt % aqueous solution, 0.01 mL/cm^2 on filter paper, 40° C. and 25% RH, 24 hours
Procedure: Next, 20.0 g of an ion-exchange water was put into a 40 mL pierce vial bottle (by AS ONE Corporation.), followed by removing an inner lid (rubber plug) of the pierce vial bottle, placing on the pierce vial bottle the filter paper to which each sample had been applied, and then plugging the bottle with an outer lid.
Further, Wm1, Wm2, Sm1 and Sm2 in the formula below respectively represent the following numerical values.
Wm1: Weight of ion-exchange water in vial before storage (using filter paper to which only ion-exchange water had been applied)
Wm2: Weight of ion-exchange water in vial after 24 hours (using filter paper to which only ion-exchange water had been applied)
Sm1: Weight of ion-exchange water in vial before storage (using filter paper to which sample had been applied)
Sm2: Weight of ion-exchange water in vial after 24 hours (using filter paper to which sample had been applied)

[3] = Stability of ascorbic acid-based compound (coloration); format: physicochemical; design: key to Appearance (Visual evaluation) Immediately after preparatiom / Appearance (Visual evaluation) After 7 days 50° C. / Appearance (Visual evaluation) After 7 days Room temperature: ⊚: Colorless and transparent; ∘: Light yellow; Δ: Yellow; x: Brown to black; conditions: 33 wt % aqueous solution
Procedure: With regard to a 33 wt/% aqueous solution of each of the compounds C46, C49 and C98 to C100 and water, a stability in an aqueous solution condition was visually evaluated. An evaluation method was such that there was prepared a 33 wt % aqueous solution of each of the compounds C46, C49 and C98 to C100, the aqueous solution was then left to stand still at room temperature or in a thermostatic bath of 50° C. for seven days; coloration before and after the still standing was visually confirmed. The evaluation criteria were as follows. • ⊚: Colorless and transparent • ∘: Light yellow • Δ: Yellow • x: Brown to black

Tyrosinase = assay: Whitening effect: tyrosinase activity inhibition test; format: biochemical; conditions: compound concentration 500 μg/mL; substrate D, L-DOPA; room temperature for a week
Procedure: With regard to a 50 wt/% aqueous solution of each of the compounds C46, C49 and C101, a whitening effect was confirmed via a tyrosinase activity inhibition test. Tyrosinase (by SIGMA-ALDRICH) was dissolved with a 67 mM phosphate buffer solution (pH 6.8) so that the concentration of the tyrosinase would be 0.2 mg/mL, thereby obtaining an enzyme solution. Further, a substrate solution was prepared by dissolving 3 mg of D, L-DOPA (by Tokyo Chemical Industry Co., Ltd.) into 10 mL of the 67 mM phosphate buffer solution. […] Next, 80 μL of the substrate solution was quickly added to the preincubated solution, and an absorbance (A1) at 475 nm immediately after the addition of the substrate solution was then measured. Further, after leaving this solution to stand still at room temperature for a week, an absorbance (A2) at 475 nm was again measured.
In addition, as a control, there were prepared samples containing an ultrapure water instead of the compounds of the working examples; and in a similar manner as above, there were measured an absorbance (A3) at 475 nm immediately after the addition of the substrate, and an absorbance (A4) at 475 nm after leaving the solution at room temperature for a week.
An inhibition rate was calculated with the following formula.

[4] = Water retention property and adherability with respect to healthy hair; design: species or system human
Procedure: In the following evaluations, a human black hair produced by Beaulax Co., Ltd was used as a healthy hair. A damaged hair was prepared by repeatedly having the healthy hair permed and bleached three times.
An 80 wt % aqueous solution of each of the compounds B1 to B26 (content in terms of anhydride in the cases of the compounds B1 to B23) was prepared, followed by using a Karl Fischer moisture meter (KF-200 by Mitsubishi Chemical Analytech Co., Ltd.) to confirm that a moisture rate was 20.0 wt %. As a healthy hair, there was used a chemically untreated healthy hair (human black hair by Beaulax Co., Ltd). The moisture rate (pre-test moisture rate A) of the hair was measured by an infrared moisture meter (by Kett Electric Laboratory).
After immersion, the hair was taken out, and KimWipes were then used to wipe off the compound until a change in weight was no longer observed, followed by measuring the weight of the hair (post-test hair weight B). The hair from which the compound had been wiped off was then placed into a thermo-hygrostat set to 40° C. and 35 to 40% RH. A moisture rate after 24 hours (post-test moisture rate B) was then measured, followed by calculating a rate of reduction in moisture with the following formula. Likewise, instead of the 80 wt % aqueous solution, evaluation was also performed in a similar manner using only an ion-exchange water (comparative example B4).
Further, an adhesion rate of the compound adhering to the hair was calculated with the following formula. […]

[5] = Water retention property and adherability with respect to damaged hair; design: species or system human; conditions: concentration 50 wt % (Table 11)
Procedure: A damaged hair was prepared by the following method.
A damaged hair was produced by performing these perm treatment and bleach treatment three times.

[6] = Sensory evaluation on healthy hair after using organic ammonium salt; design: species or system human; key to When washing: Finger-combing capability: ⊚: Superior; ∘: Favorable; Δ: No change; x: Inferior; conditions: healthy hair, 80 wt % aqueous solution
Procedure: (§1) Here, an 80 wt % aqueous solution(s) of each of the compounds B11, B12, B23, B26 and B27 (content in terms of anhydride in the cases of the compounds B11, B12 and B23) were prepared and used as samples. Next, one minute was spent in evenly applying 10.0 g of each sample to a bundle of the healthy hairs weighing about 10 g, using a brush; the bundle of the healthy hairs was then left for 5 min. After leaving it for 5 min, the bundle of the healthy hairs was rinsed with a hot water of 40° C. for 30 sec, and evaluated was a finger-combing capability at the time of performing washing. The hair bundle that had been rinsed was then dried with a towel and further subjected to air drying for a day, followed by evaluating items such as flexibility, finger-combing capability, texture, elasticity/resilience (feeling by bare hands), volume increase (visual evaluation), cohesiveness, moist feeling, surface smoothness, non-stickiness (feeling by bare hands) and gloss (visual evaluation), from the perspective of superiority or inferiority to a test hair bundle(s) uncoated with the sample.

[7] = Sensory evaluation on damaged hair after using organic ammonium salt; design: species or system human; conditions: damaged hair, 80 wt % aqueous solution
Procedure: as §1, with “damaged” for “healthy”, “as” for “as flexibility, finger-combing capability, texture,”, “hands),” for “hands), volume increase (visual evaluation),”, “cohesiveness,” for “cohesiveness, moist feeling,”, “smoothness” for “smoothness, non-stickiness (feeling by bare hands)”, “non-waviness,” for “gloss (visual evaluation),”

[8] = Affinity to hair (contact angle); conditions: 50 wt % aqueous solution; condition B (hair iron, 160° C.)
[9] = Sensory evaluation on healthy hair after using shampoo agent containing organic ammonium salt; design: species or system human; conditions: shampoo agent containing 3.0% by mass of the compound; treated 10 times
Procedure: (§2) Next, the mixture was cooled to a temperature of 30° C. or lower, and a purified water of an evaporated amount was then added thereto so that the whole hair treatment composition would be 100% by mass, followed by uniformly mixing them so as to obtain a hair treatment composition(s). The pH level of the hair treatment composition was adjusted to pH 6.0 by adding a citric acid or sodium hydroxide.
About 5 g of the healthy hair was taken and dipped into 350 ml of a seven-time dilute aqueous solution of each of the abovementioned hair treatment compositions (shampoo agents) at 35 to 40° C. so as to be washed. The healthy hair was then subjected to a rinsing treatment five times using 500 ml of a warm water of 35 to 40° C., followed by drying the same at 80° C., and then performing air drying at 25° C. Such series of treatment involving hair washing, rinsing and drying was repeated 10 times to then evaluate a cohesiveness of the hair, a moist feeling of the hair, a gloss of the hair, a surface smoothness of the hair and a non-stickiness on the surface of the hair, after performing air drying.

[10] = Sensory evaluation on damaged hair after using shampoo agent containing organic ammonium salt; design: species or system human; conditions: shampoo agent containing the compound; treated 10 times
Procedure: as §2
The damaged hair was repeatedly treated 10 times in a similar manner as 3-1; evaluated were a cohesiveness of the hair, surface smoothness of the hair and waviness of the hair after performing air drying.

[11] = Sensory evaluation on healthy hair after using conditioner containing organic ammonium salt; design: species or system human; conditions: conditioner containing 3.0% by mass of the compound
Procedure: Here, 4.5% by mass of a stearyl alcohol (KALCOL 8688 by Kao Corporation), 2.0% by mass of a behenyl alcohol (KALCOL 220-80 by Kao Corporation) and 0.5% by mass of a phenoxyethanol (Hisolve EPH by TOHO Chemical Industry Co., Ltd.) were mixed together and heated to 75° C. to obtain a liquid A. Further, 3.0% by mass of a behentrimonium chloride (CATINAL DC-80 by TOHO Chemical Industry Co., Ltd.), 5.0% by mass of dipropylene glycol and 3.0% by mass of each of the compounds B11, B23, B26, B27 and B28 (content in terms of anhydride in the cases of the compounds B11 and B23) were added together, followed by adding a purified water thereto, and then melting them at 80° C., thus obtaining a liquid B. The liquid B was then gradually added to the liquid A, and stirring was performed at 75° C. for 20 min. Next, the mixture was cooled to a temperature of 40° C. or lower, and a purified water of an evaporated amount was then added thereto so that the whole hair treatment composition would be 100% by mass, followed by uniformly mixing them so as to obtain a hair treatment composition(s).
About 5 g of the healthy hair was dipped into and kept immersed in 150 g of a seven-time dilute aqueous solution of each of the abovementioned hair treatment compositions (conditioners) at 40° C. for 30 min. […] After air drying, a combing capability, cohesiveness and non-stickiness of the hair were evaluated.

[12] = Surface resistance measurement of organic ammonium salt; conditions: 0.7 g applied to polyurethane artificial leather; dried, coating in solid state

NC(CO)(CO)CO.O=C1OC(C(O)CO)C(O)=C1O (centres unmarked) [Compound C49]
Water retention property test 1 Pre-test moisture rate [1]: 20.0%
Water retention property test 1 Post-test moisture rate ([1]; 24 hours at 40° C. and 25% RH): 19.4%
Water retention property test 1 Rate of reduction in moisture ([1]; 24 hours at 40° C. and 25% RH): 3.0%
Water evaporation inhibition rate [2]: 32.19%
Appearance (Visual evaluation) After 7 days 50° C. [3]: Δ
Appearance (Visual evaluation) After 7 days Room temperature [3]: ○
Appearance (Visual evaluation) Immediately after preparatiom [3]: ⊚
Coloration of aqueous solution (stability) ([3]; room temperature or 50° C., seven days): significant improvements in coloration
Tyrosinase activity inhibition rate (Tyrosinase): 95.8%

CC(O)C(=O)O (centres unmarked) [lactic acid, reference compound]
Hair adhesion rate ([4]; healthy hair, concentration 50 wt % (Table 11)): 1.1%
Hair adhesion rate [5]: 1.1%

NC(CO)(CO)CO.O=C(O)CO [Compound B12]
Compound adhesion rate ([4]; healthy hair immersed 60 min in 80 wt % aqueous solution): 1.6%
Post-test moisture rate ([4]; healthy hair immersed 60 min in 80 wt % aqueous solution, after 24 hours at 40° C., 35 to 40% RH, pre-test 7.6%): 5.4%
Rate of reduction in moisture ([4]; healthy hair, 80 wt % aqueous solution, 24 hours at 40° C., 35 to 40% RH): 29%
After air drying: Cohesiveness of hair [6]: ◯~Δ
After air drying: Elasticity/Resilience [6]: ◯~Δ
After air drying: Finger-combing capability [6]: ◯~Δ
After air drying: Flexibility [6]: ◯~Δ
After air drying: Gloss of hair [6]: ◯~Δ
After air drying: Moist feeling [6]: ◯~Δ
After air drying: Non-stickiness of hair surface [6]: ◯~Δ
After air drying: Smoothness of hair surface [6]: ◯~Δ
After air drying: Texture [6]: ◯~Δ
After air drying: Volume increase [6]: ◯~Δ
When washing: Finger-combing capability ([6]; versus uncoated hair bundle): ⊚
After air drying: Cohesiveness of hair [7]: ◯~Δ
After air drying: Elasticity/Resilience [7]: ◯~Δ
After air drying: Smoothness of hair surface [7]: ◯~Δ
After air drying: Suppression of hair waviness [7]: ◯
When washing: Finger-combing capability [7]: ◯~Δ
Contact angle of water droplet on treated hair [8]: infiltrated the hair

CC(O)C(=O)[O-].[Na+] (centres unmarked) [Compound B28, sodium lactate]
Sensory evaluation of healthy hair after shampoo agent (cohesiveness, moist feeling, gloss, smoothness, non-stickiness) [9]: inferior in general
Sensory evaluation of damaged hair after shampoo agent (cohesiveness, surface smoothness, waviness) [10]: inferior surface smoothness
Combing capability, cohesiveness and non-stickiness of healthy hair after conditioner [11]: poor hair cohesiveness
Surface resistance value [12]: 2×10^8 Ω
